The values below come from US7332317B2, “Phosphodiesterase and genes thereof” (Tanabe Seiyaku Co., Ltd., priority 1999, dated 2008).

Assay [1] addresses T1, human PDE11A1 (Homo sapiens, UniProt Q9HCR9, DUP921-921/R184Q). The assay can be described thus: Inhibition of human PDE11A1 activity by known PDE inhibitors (radio-labeled nucleotide method).
Protocol: (§1) Incidentally, measurement of PDE activity was done according to a radio-labeled nucleotide method. […] After carrying out a reaction by keeping a temperature at 37° C. for 30 minutes, reaction was terminated by boiling the reaction mixture for 2 minutes, and 100 μl of 1 mg/ml of snake venom (Crotalus atrox snake venom) was further added thereto and the temperature was kept at 37° C. for 30 minutes. Subsequently, 500 μl of methanol was added thereto, and the reaction mixture was applied to Dowex column (1×8-400). Scintillation cocktail was added to each of the eluates, and radioactivity was measured.
The target of assay [2] is T2, human PDE11A2 (Homo sapiens, UniProt Q9HCR9, DUP921-921). Put plainly: Inhibition of human PDE11A2 activity by known PDE inhibitors (radio-labeled nucleotide method).
Protocol: as §1
The target in assay [3] is T2, human PDE11A2. The assay can be described thus: Kinetic analysis of cAMP/cGMP hydrolysis by human PDE11A2 (Lineweaver-Burk plot). The settings on record: labelled substance as substrate, 0.1 to 10 μM. It counts as biochemical. Also noted: inserted into a BamHI-XhoI site of an expression vector, pHis, to obtain a vector plasmid pHis-PDE11T for PDE11A2 expression; made in house; host or cells: COS-7 cells.

The test system of another assay is human PDE11. The assay can be described thus: Influence of cGMP on cAMP hydrolysis activity and of cAMP on cGMP hydrolysis activity. It counts as biochemical. The settings on record: 3.5 μM unlabeled cAMP; 0.01-100 μM cGMP added; PDE11A1 and PDE11A2, FIG. 3.
Assay [4] deals with T1, human PDE11A1. The assay can be described thus: Kinetic analysis of cAMP/cGMP hydrolysis by human PDE11A1 (Lineweaver-Burk plot). It counts as biochemical. Also noted: inserted into a BamHI-XhoI site of an expression vector, pcDNA4/HisMaxC; made in house; host or cells: COS-7 cells. The note with it: labelled substance as substrate, 0.1 to 10 μM.
The mark [5] stands for this setting: read-out: IC50 value for human PDE11A1 activity, effect on cGMP hydrolysis activity, substrate 1.3 μM unlabeled cGMP, inhibitor 0-100 μM, recombinant enzyme from COS-7 cells.
Setting [6] is: read-out: IC50 value for human PDE11A2 activity, effect on cGMP hydrolysis activity, substrate 1.3 μM unlabeled cGMP, inhibitor 0-100 μM, recombinant enzyme from COS-7 cells.

Where “and” joins values, the source holds several entries; their conditions need not be identical. Identical values can stand only once. Like-named read-outs stand apart in the source and are kept apart here. Where only a bound is given, the exact number is not on record here.

T1 sequence (Q9HCR9 with tags, fused parts or gaps R184Q/DUP921-921): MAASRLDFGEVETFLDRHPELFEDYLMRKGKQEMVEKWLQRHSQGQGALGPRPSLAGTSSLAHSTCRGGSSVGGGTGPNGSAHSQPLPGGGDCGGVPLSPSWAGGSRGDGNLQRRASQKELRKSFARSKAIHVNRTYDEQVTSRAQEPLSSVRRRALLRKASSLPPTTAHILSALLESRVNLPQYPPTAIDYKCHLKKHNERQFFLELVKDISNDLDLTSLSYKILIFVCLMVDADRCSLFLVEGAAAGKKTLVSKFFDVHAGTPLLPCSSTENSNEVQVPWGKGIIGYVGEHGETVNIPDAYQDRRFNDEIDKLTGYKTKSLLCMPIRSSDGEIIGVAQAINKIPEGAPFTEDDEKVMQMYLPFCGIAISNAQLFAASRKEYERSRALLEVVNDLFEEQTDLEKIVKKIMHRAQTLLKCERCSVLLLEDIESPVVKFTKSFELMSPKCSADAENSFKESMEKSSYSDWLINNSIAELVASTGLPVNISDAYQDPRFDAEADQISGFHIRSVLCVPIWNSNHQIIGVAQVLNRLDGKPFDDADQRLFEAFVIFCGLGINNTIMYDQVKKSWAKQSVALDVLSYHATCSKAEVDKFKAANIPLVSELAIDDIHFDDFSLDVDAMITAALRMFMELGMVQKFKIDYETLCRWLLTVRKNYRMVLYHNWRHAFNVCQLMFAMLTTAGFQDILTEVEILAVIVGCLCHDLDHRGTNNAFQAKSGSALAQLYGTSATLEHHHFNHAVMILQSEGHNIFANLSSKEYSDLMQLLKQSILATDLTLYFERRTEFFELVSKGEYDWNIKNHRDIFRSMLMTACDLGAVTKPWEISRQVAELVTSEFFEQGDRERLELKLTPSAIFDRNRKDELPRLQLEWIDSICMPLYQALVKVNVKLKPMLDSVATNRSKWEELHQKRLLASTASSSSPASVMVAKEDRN
T2 sequence (Q9HCR9 with tags, fused parts or gaps isoform Q9HCR9-2 DUP671-671): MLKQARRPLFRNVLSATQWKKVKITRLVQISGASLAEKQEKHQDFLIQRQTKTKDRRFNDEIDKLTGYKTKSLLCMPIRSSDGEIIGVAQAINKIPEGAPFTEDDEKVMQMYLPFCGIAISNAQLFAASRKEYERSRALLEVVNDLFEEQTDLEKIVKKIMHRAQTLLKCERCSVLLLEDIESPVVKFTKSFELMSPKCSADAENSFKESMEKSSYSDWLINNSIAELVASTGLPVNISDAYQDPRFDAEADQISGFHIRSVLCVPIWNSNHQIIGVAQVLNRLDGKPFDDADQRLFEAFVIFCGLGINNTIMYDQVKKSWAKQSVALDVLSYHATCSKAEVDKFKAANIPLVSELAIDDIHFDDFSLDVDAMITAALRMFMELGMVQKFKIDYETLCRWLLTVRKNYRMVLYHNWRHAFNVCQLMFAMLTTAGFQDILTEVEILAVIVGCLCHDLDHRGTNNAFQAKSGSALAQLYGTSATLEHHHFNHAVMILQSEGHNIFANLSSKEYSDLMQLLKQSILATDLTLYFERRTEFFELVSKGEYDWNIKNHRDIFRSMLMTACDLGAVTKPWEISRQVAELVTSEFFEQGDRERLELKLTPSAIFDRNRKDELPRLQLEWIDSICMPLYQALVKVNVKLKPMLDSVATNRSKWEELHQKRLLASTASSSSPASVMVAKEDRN

As to `CN1C(=O)c2[nH]c(Cc3ccc(C(F)(F)F)cc3)nc2N2C1=N[C@@H]1CCC[C@@H]12` (single isomer, unassigned) [SCH51866, (+)-cis-5-methyl-2-[4-(trifluoromethyl)benzyl]-3,4,5,6a,7,8,9,9a-octahydrocyclopent[4,5]imidazo-[2,1-b]purin-4-one], the IC50 against human PDE11A1 [1] is 22 µM and 25 µM; against human PDE11A2 [2], 11 µM and 8.6 µM.
Consider `O=C(O)C1CCN(c2nc(NCc3ccc4c(c3)OCO4)c3cc(Cl)ccc3n2)CC1` [E4021, sodium 1-[6-chloro-4-(3,4-methylenedioxybenzyl)aminoquinazolin-2-yl]pyperidine-4-carboxylate], for which the IC50 against human PDE11A1 [1] was 1.8 ± 0.33 µM; against human PDE11A2 [2] it was 0.88 µM and 0.66 µM.
For the compound `CC(C)Cn1c(=O)n(C)c(=O)c2[nH]cnc21` [IBMX, 3-isobutyl-1-methylxanthine], the IC50 is 65 µM and 81 µM at human PDE11A1 [1]; 30 µM and 38 µM against human PDE11A2 [2].
For the compound `Cc1[nH]c(=O)c(C#N)cc1-c1ccncc1` [Milrinone], the IC50 on human PDE11A1 [1], at human PDE11A1 [1] (setting [5]), on human PDE11A2 [2] and on human PDE11A2 [2] (setting [6]) was over 100 µM in each case.
Consider `COc1ccc(C2CNC(=O)C2)cc1OC1CCCC1` (centres unmarked) [Rolipram], for which the IC50 on human PDE11A1 [1], at human PDE11A1 [1] (setting [5]), against human PDE11A2 [2] and at human PDE11A2 [2] (setting [6]) was over 100 µM each time.
As for `CCOC(=O)C1=C[C@]2(CC)CCCN3CCc4c(n1c1ccccc41)[C@@H]32` [Vinpocetine], the IC50 against human PDE11A1 [1] is over 100 µM; at human PDE11A1 [1] (setting [5]), over 100 µM; against human PDE11A2 [2] it was 49 µM and 68 µM.
As for `Nc1ncnc2c1ncn2[C@@H]1O[C@@H]2COP(=O)(O)O[C@H]2[C@H]1O` [cAMP], the “Vmax of human PDE11A2” value at human PDE11A2 [3] worked out at 9.63±1.88 pmol/min/μg protein.
In the case of `Nc1nc2c(ncn2[C@@H]2O[C@@H]3COP(=O)(O)O[C@H]3[C@H]2O)c(=O)[nH]1` [cGMP], the “cAMP hydrolysis activity (relative value %) on addition of cGMP” value with human PDE11 is on record as “lowered depending on a concentration of cGMP added”. In addition, at human PDE11A1 [4], the Km was determined as 1.43 ± 0.109 µM and the “Vmax of human PDE11A1” value was 121±8.08 pmol/min/μg of protein. For the same compound, on human PDE11A2 [3], the Michaelis-Menten constant (Km) amounted to 1.47 ± 0.115 µM and the “Vmax of human PDE11A2” value turned out to be 4.02±0.214 pmol/min/μg protein.
